Activity calls are given as the source filed them. No cut-off for these calls is given here.
Legend:
[1] = target: T1, Free fatty acid receptor 4 (Homo sapiens) (UniProt Q5NUL3); test: Agonist activity at GPR120 (unknown origin)
T1 sequence (whole entry): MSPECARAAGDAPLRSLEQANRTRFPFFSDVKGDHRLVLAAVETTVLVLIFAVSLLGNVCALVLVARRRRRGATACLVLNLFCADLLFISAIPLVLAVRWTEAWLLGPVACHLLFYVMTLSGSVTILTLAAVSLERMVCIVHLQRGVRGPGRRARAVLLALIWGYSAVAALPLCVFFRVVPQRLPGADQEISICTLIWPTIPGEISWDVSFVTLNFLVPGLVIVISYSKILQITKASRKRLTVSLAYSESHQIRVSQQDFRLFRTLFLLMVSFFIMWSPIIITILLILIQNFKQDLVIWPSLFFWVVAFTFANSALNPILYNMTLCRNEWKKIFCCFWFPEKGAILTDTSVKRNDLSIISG

[2] = target: Free fatty acid receptor 1 (Rattus norvegicus) (UniProt Q8K3T4); test: Agonist activity at GPR40 receptor in rat INS1(832/13) cells assessed as induction of IP1 accumulation at 10 uM relative to TAK875; type: functional, cell-based; conditions: INS-1 832/13, filed as agonist
Free fatty acid receptor 1 (Rattus norvegicus), sequence (Q8K3T4 whole entry): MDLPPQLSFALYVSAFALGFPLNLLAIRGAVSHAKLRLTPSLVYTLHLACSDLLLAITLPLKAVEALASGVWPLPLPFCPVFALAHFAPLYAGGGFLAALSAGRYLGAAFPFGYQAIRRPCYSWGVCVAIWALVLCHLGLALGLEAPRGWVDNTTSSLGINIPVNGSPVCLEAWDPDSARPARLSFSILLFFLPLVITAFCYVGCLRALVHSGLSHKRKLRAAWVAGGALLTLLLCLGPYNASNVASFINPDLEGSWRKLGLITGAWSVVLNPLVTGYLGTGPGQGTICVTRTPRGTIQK

[3] = test system: Rattus norvegicus; test: Anti-glycemic activity in fasted Sprague-Dawley ZDF rat assessed as reduction in post-prandial hyperglycemia by measuring AUC(0 to 2 hrs) for blood glucose at 10 mg/kg administered for 1 day and measured on day 1 by OGTT; type: functional
[4] = test system: Rattus norvegicus; test: Anti-glycemic activity in fasted Sprague-Dawley ZDF rat assessed as increase in insulin secretion by measuring insulin level in plasma administered 30 mins prior to glucose challenge measured after 140 mins by OGTT; type: functional, organism-based; conditions: dose 1-10 mg/kg, time 170.0 min
[5] = test system: Rattus norvegicus; test: Anti-glycemic activity in fasted Sprague-Dawley ZDF rat assessed as reduction in post-prandial hyperglycemia administered 30 mins prior to glucose challenge and measured for 120 mins by OGTT; type: functional; conditions: 2.5 h, time 150 min, read-out: MED
[6] = Volume of distribution at steady state in rat; type: ADME; conditions: in vivo, read-out: Vdss
[7] = target: Free fatty acid receptor 1 (Homo sapiens, UniProt O14842); test: Agonist activity at human GPR40 receptor expressed in CHOK1 cells assessed as induction of IP1 accumulation at 10 uM; type: functional, cell-based; conditions: CHO-K1, filed as agonist
Free fatty acid receptor 1 (Homo sapiens, UniProt O14842), sequence (O14842 whole entry): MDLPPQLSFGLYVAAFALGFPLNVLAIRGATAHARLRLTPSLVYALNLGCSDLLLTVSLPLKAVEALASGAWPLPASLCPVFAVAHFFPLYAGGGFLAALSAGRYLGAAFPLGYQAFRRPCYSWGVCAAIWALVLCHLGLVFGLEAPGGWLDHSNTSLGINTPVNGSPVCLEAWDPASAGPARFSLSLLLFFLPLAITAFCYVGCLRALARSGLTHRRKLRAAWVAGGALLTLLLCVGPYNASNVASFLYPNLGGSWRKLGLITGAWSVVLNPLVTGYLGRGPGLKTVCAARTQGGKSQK

[8] = target: Cytochrome P450 3A4 (Homo sapiens, UniProt P08684); test: Inhibition of CYP3A4 (unknown origin) using midazolam as substrate; type: ADME
Cytochrome P450 3A4, sequence (P08684 whole entry): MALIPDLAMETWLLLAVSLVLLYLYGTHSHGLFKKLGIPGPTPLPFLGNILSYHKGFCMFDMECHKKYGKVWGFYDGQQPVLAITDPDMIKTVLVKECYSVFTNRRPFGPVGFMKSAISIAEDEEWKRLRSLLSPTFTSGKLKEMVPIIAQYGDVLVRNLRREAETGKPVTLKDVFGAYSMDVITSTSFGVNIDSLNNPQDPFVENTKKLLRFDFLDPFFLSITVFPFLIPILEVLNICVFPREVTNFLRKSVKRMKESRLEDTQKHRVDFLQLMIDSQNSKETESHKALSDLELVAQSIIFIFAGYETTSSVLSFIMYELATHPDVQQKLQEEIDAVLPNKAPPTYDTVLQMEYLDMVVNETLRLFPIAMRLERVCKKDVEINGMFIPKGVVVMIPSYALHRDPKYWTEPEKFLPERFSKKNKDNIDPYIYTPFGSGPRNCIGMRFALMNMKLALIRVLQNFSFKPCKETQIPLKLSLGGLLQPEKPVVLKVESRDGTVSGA

[9] = Protein binding in human plasma; type: ADME, cell-free; conditions: read-out: PPB (converted)
[10] = Intrinsic clearance in dog assessed as half-life at 1 uM; type: ADME, Canis lupus familiaris
[11] = target: Cytochrome P450 2C19 (Homo sapiens, UniProt P33261); test: Inhibition of CYP2C19 (unknown origin); type: ADME
Cytochrome P450 2C19, sequence (P33261 whole entry): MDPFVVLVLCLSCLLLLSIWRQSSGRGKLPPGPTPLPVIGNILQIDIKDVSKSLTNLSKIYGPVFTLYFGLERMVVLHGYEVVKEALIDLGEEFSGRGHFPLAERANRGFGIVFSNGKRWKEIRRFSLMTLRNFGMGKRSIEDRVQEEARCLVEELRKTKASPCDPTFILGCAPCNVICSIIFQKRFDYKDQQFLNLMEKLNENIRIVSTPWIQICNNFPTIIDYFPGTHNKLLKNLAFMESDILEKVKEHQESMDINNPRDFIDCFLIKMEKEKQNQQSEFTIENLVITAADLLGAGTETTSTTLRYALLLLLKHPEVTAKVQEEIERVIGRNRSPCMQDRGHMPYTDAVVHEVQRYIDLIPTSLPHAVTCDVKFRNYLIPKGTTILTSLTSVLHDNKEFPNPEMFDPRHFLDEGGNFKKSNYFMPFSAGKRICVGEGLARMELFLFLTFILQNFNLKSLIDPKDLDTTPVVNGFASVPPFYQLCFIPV

[12] = Hepatic clearance in dog; type: ADME, Canis lupus familiaris; conditions: in vivo
[13] = target: Free fatty acid receptor 1 (Rattus norvegicus, UniProt Q8K3T4); test: Agonist activity at GPR40 receptor in rat INS1(832/13) cells assessed as induction of IP1 accumulation; type: functional, cell-based, INS-1 832/13
Free fatty acid receptor 1 (Rattus norvegicus, UniProt Q8K3T4), sequence (Q8K3T4 whole entry): as the sequence (Q8K3T4 whole entry) above

[14] = target: T2, Peroxisome proliferator-activated receptor gamma (Homo sapiens) (UniProt P37231); test: Agonist activity at PPARgamma (unknown origin); type: cell-based; conditions: HEK293
T2 sequence (whole entry): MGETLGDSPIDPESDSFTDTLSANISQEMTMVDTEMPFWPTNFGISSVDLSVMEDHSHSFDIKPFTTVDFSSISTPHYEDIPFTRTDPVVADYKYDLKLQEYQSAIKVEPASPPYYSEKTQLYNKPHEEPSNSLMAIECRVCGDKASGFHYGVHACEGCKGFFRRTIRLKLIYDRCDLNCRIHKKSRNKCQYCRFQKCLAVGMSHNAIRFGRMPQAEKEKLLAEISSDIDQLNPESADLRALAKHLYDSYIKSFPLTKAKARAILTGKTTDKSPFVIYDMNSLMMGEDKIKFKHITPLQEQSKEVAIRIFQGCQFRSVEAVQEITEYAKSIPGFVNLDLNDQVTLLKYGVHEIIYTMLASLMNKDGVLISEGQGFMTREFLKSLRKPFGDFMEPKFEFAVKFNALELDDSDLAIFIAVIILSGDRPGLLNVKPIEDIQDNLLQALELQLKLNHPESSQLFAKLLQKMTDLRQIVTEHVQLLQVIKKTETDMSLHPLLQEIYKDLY

[15] = target: Free fatty acid receptor 1 (Rattus norvegicus) (UniProt Q8K3T4); test: Agonist activity at GPR40 receptor in rat INS1(832/13) cells assessed as induction of IP1 accumulation at 10 uM; type: functional, cell-based; conditions: INS-1 832/13, filed as agonist
[16] = Volume of distribution at steady state in cynomolgus monkey; type: ADME, Macaca fascicularis; conditions: in vivo, read-out: Vdss
[17] = target: Free fatty acid receptor 1 (Rattus norvegicus) (UniProt Q8K3T4); test: Agonist activity at GPR40 receptor in rat INS1(832/13) cells assessed as induction of IP1 accumulation at 10 uM relative to AM1638; type: functional, cell-based; conditions: INS-1 832/13, filed as agonist
[18] = Clearance in dog; type: ADME, Canis lupus familiaris; conditions: in vivo
[19] = Oral bioavailability in cynomolgus monkey; type: ADME, organism-based, Macaca fascicularis; conditions: in vivo

Structure (SMILES): COc1cc(-c2ncc(COc3cccc([C@@H](CC(=O)O)C4CC4)c3)nc2CC(C)C)c(F)cn1
- Activity [1]: inactive
- Activity [2]: 208%
- Activity [3]: 37373 ng/mL.hr
- Activity [4]: Dose-dependent effect
- minimal effective dose [5]: 3 mg/kg
- Vd [6]: 0.384 L/kg
- Activity [7]: 1040 nM
- IC50 [8]: 8 µM
- fraction unbound [9]: 0.0012
- half-life at 1 µM [10]: 1.38 h
- IC50 [11]: > 10 µM
- CLH [12]: 13.5 mL/min/kg
- EC50 [13]: 0.862 µM
- Activity [14]: inactive
- Activity [15]: 1170 nM
- Vd [16]: 1.06 L/kg
- Activity [17]: 104%
- clearance [18]: 8.36 mL/min/kg
- bioavailability [19]: 99.4%
